According to patent US8007835B2, “Hibiscusanthocyanins for inhibiting cancers” (Aiken Biotechnology International Co., Ltd., priority 2005, dated 2011):

Key:
c-Jun = assay: Western blot, phosphorylated c-Jun in HL-60 cells; assay type: cell-based, human; conditions: pretreatment with SB203580 (50 AM), then HAs 3 mg/ml 6 h
Description: (§1) The medium was removed, and the cells were rinsed with TBS at room temperature. Then 500 μl of cold RIPA buffer (1% NP-40, 50 mM Tris-base, 0.1% SDS, 0.5% deoxycholic acid, and 150 mM NaCl, pH 7.5) with three kinds of proteinase freshly added (10 μg/ml leupeptin, 10 μg/ml PMSF, and 17 μg/ml sodium orthovanadate) were used. After sonication for 1 h at 4° C., a centrifugation (10,000×g) of cell lysate was performed for 10 min at 4° C. The supernatant (50 μg protein) was mixed with an equal volume of electrophoresis sample buffer and boiled for 10 min, which was then subjected to SDS-polyacrylamide gel electrophoresis using a 10% running gel, and electroblotted to nitrocellulose membranes (Millipore, Bedford, Mass., USA). Nonspecific binding was blocked by incubation of the membrane with TBS containing 1% (W/V) nonfat dry milk and 0.1% (v/v) Tween-20 (TBST) for more than 2 h. Membranes were washed with TBST three times for 10 min and incubated with appropriate dilution of primary antibody in TBST for 2 h. Membranes were then extensively washed with TBST before being incubated with appropriate horseradish peroxidase-conjugated secondary antibody for 1 h. After washing the membrane three times, 10 min each in TBST, detection was performed using ECLWestern blotting detection reagents (Amersham, Arlington Heights, Ill., USA).

Fas = assay: Western blot, Fas expression in HL-60 cells; assay type: cell-based, human; conditions: pretreatment with SB203580 (50 AM), then HAs 3 mg/ml 6 h
Description: as §1

FasL = assay: Western blot, FasL expression in HL-60 cells; assay type: cell-based, human; conditions: pretreatment with SB203580 (50 AM), then HAs 3 mg/ml 6 h
Description: as §1

HL-60 cells = assay: Flow cytometry (PI) cell cycle and quantification of apoptosis; conditions: for effect of inhibitor on HAs-induced apoptosis (cytotoxic action of HAs): PD98059 25 AM, SP600125 20 AM, wortmannin 1 AM, then HAs 3 mg/ml 24 h
Description: Flow cytometric analysis of HL-60 cells was performed on the 24-h cultures using a FACScan. The cells of harvest were centrifuged at 1000 rpm for 5 min at room temperature. Thereafter, cells were washed once with Tris-buffered saline (TBS). Then cell suspension was centrifuged again (1000 rpm, 5 min) and resuspended in 70% ethanol. After incubation at −20 for at least 24 h, the cells were resuspended in 1 ml of cell cycle assay buffer [50 μg/ml propidium iodide (PI), 50 μg/ml RNase A, and 0.1% Triton X-100], and it was incubated for 15 min in darkness. Propidium iodide (Sigma) was excited at 488 nm, and fluorescence signal was subjected to logarithmic amplification with PI fluorescence (red) being detected above 600 nm. Cell cycle distribution is presented as the number of cells versus the amount of DNA as indicated by the intensity of fluorescence, and the extent of apoptosis was determined by counting cells of DNA content below the G0/G1 peak.

SMILES: C[S+]([O-])c1ccc(-c2nc(-c3ccc(F)cc3)c(-c3ccncc3)[nH]2)cc1 (stereo not shown) [SB203580, 4-[4-fluorophenyl]-2-[4-methylsulfinylphenyl]-5-[4-pyridyl]-1H-imidazole]
- c-Jun (phospho-c-Jun) expression (c-Jun): down-regulated
- Fas expression (Fas): down-regulated
- FasL expression (FasL): down-regulated
- reduction in the sub-G1 phase compared to HAs alone (HL-60 cells; 50 AM SB203580 followed by 24-h exposure to HAs (3 mg/ml)): ~50%
- sub-G1 phase (HL-60 cells; 50 AM SB203580 preincubation followed by 24-h exposure to HAs (3 mg/ml)): 27.39%

SMILES: COC[C@H]1OC(=O)c2coc3c2[C@@]1(C)C1=C(C3=O)[C@@H]2CCC(=O)[C@@]2(C)C[C@H]1OC(C)=O [wortmannin]
- effect of inhibitor on HAs-induced apoptosis (cytotoxic action of HAs) (HL-60 cells): did not reduce the cytotoxic action of HAs

SMILES: Oc1c2ccccc2c2c3c(cccc13)N=N2 [SP600125, 1,9-pyrazoloanthrone]
- effect of inhibitor on HAs-induced apoptosis (cytotoxic action of HAs) (HL-60 cells): did not reduce the cytotoxic action of HAs
